Experimental data published in US7968573B2, “Hydrazide compound and pesticidal use of the same” (Sumitomo Chemical Company, Limited, priority 2008, dated 2011).

Assays:
cotton aphids = assay: Test Example 2: spray on cucumber infested with cotton aphids; format: in vivo, Aphis gossypii; settings: 500 ppm spray solution, 20 ml/cup on cucumber with about 30 cotton aphids; counted six days after spraying
Description: At the same time, cucumber was planted in a polyethylene cup, and was grown until the first true leaf was developed. About 30 cotton aphids were put on the cucumber. One day after, the test spray solution as described above was sprayed in an amount of 20 ml/cup on the cucumber. Six days after spraying, the number of cotton aphids was counted, and a controlling value was calculated by the following equation: Controlling value(%)={1−(Cb×Tai)/(Cai×Tb)}×100 wherein, Cb: the number of insects in a non-treated section before treatment Cai: the number of insects in a non-treated section on observation Tb: the number of insects in a treated-section before treatment Tai: the number of insects in a treated-section on observation. Furthermore, the same way as Test Example 2, test spray solution of the comparative compound of the formula: […]

silver leaf whitefly = assay: Test Example 6: spray on cabbage with hatched larvae of silver leaf whitefly; format: in vivo; settings: Bemisia argentifolii, 168 h; 500 ppm spray solution, 20 ml/cup on cabbage with hatched larvae of silver leaf whitefly; counted seven days after spraying; read-out: Controlling value
Description: At the same time, cabbage was planted in a polyethylene cup, and grown until the first true leaf was developed. All leaves excluding the first true leaf were cut off. On the first true leaf, imagoes of silver leaf whitefly were released and allowed to lay eggs for about 24 hours. The cabbage was retained in a greenhouse for 8 days. When larvae hatched from the laid eggs, the test spray solution as described above was sprayed in an amount of 20 ml/cup to the cabbage. Seven days after spraying, the number of larvae surviving on the cabbage was counted, and a controlling value was calculated by the following equation: Controlling value(%)={1−(Cb×Tai)/(Cai×Tb)}×100 wherein, Cb: the number of worms in a non-treated section before treatment Cai: the number of worms in a non-treated section on observation Tb: the number of worms in a treated-section before treatment Tai: the number of worms in a treated-section on observation.

[1] = test system: Frankliniella occidentalis; assay: Test Example 5: sprayed cucumber leaf, larvae of Frankliniella occidentalis; format: in vivo; settings: 168 h; 500 ppm spray solution, 20 ml/cup on cucumber, cut first true leaf; 20 larvae of Frankliniella occidentalis; counted seven days after spraying; read-out: Controlling value
Description: At the same time, cucumber was planted in a polyethylene cup, and was grown until the first true leaf was developed. The test spray solution as described above was sprayed in an amount of 20 ml/cup on the cucumber. After the drug solution sprayed on the cucumber was dried, the first true leaf was cut and then placed on a filter paper (diameter: 70 mm) containing water in a polyethylene cup (diameter: 110 mm). On the cucumber leaf, 20 larvae of Frankliniella occidentalis were released, and the polyethylene cup was capped. Seven days after spraying, the number of insects surviving on the cucumber leaf was counted, and a controlling value was calculated by the following equation: Controlling value(%)={1−(Cb×Tai)/(Cai×Tb)}×100 wherein, Cb: the number of insects in a non-treated section before treatment Cai: the number of insects in a non-treated section on observation Tb: the number of insects in a treated-section before treatment Tai: the number of insects in a treated-section on observation.

| SMILES | Controlling value (cotton aphids) | pest or weed control at 500 ppm (silver leaf whitefly) | pest or weed control at 500 ppm [1] |
| --- | --- | --- | --- |
| COC(=O)CNC(=O)c1cccc(C)c1NC(=O)c1cc(C(F)(F)F)nn1-c1ncccc1Cl | less than 30% | – | – |
| COC(=O)NNC(=O)c1cc(Cl)cc(C)c1NC(=O)c1cc(C(F)(F)F)nn1-c1ncccc1Cl [(5)] | – | ≥ 90% | – |
| Cc1cc(Cl)cc(C(=O)NNC=O)c1NC(=O)c1cc(C(F)(F)F)nn1-c1ncccc1Cl [(17)] | – | – | ≥ 90% |
| CC(=O)NNC(=O)c1cc(Cl)cc(C)c1NC(=O)c1cc(C(F)(F)F)nn1-c1ncccc1Cl [(27)] | – | – | ≥ 90% |
| CSC(=O)NNC(=O)c1cc(Cl)cc(C)c1NC(=O)c1cc(C(F)(F)F)nn1-c1ncccc1Cl [(29)] | – | – | ≥ 90% |
| CCOC(=O)NNC(=O)c1cccc(C)c1NC(=O)c1cc(C(F)(F)F)nn1-c1ncccc1Cl [(32)] | – | ≥ 90% | – |
| COC(=O)NNC(=O)c1cc(Cl)cc(C)c1NC(=O)c1cc(Br)nn1-c1ncccc1Cl [(34)] | – | ≥ 90% | – |
| COC(=O)NNC(=O)c1cc(Cl)cc(Cl)c1NC(=O)c1cc(C(F)(F)F)nn1-c1ncccc1Cl [(56)] | – | ≥ 90% | – |
| COC(=O)NNC(=O)c1cc(Cl)cc(Br)c1NC(=O)c1cc(C(F)(F)F)nn1-c1ncccc1Cl [(59)] | – | ≥ 90% | – |
| COC(=O)NNC(=O)c1cc(Cl)cc(I)c1NC(=O)c1cc(Br)nn1-c1ncccc1Cl [(79)] | – | – | ≥ 90% |
| COC(=O)NNC(=O)c1cccc(C(F)(F)F)c1NC(=O)c1cc(Br)nn1-c1ncccc1Cl [(81)] | – | – | ≥ 90% |
| COC(=O)NNC(=O)c1ccc(Cl)c(C)c1NC(=O)c1cc(Br)nn1-c1ncccc1Cl [(85)] | – | – | ≥ 90% |
| COC(=O)NNC(=O)c1c(Cl)ccc(C)c1NC(=O)c1cc(Br)nn1-c1ncccc1Cl [(88)] | – | – | ≥ 90% |
| COC(=O)NNC(=O)c1cc(Cl)cc(C)c1NC(=O)c1cc(Br)cn1-c1ncccc1Cl [(93)] | – | ≥ 90% | – |
| COC(=O)NNC(=O)c1cc(Cl)cc(C)c1NC(=O)c1cc(SC)nn1-c1ncccc1Cl [(99)] | – | – | ≥ 90% |
| COC(=O)N(NC(=O)c1cc(Cl)cc(Br)c1NC(=O)c1cc(Br)nn1-c1ncccc1Cl)C(=O)OC [(107)] | – | ≥ 90% | – |
| COC(=O)N(C)NC(=O)c1cc(Cl)cc(C)c1NC(=O)c1cc(Br)nn1-c1ncccc1Cl [(114)] | – | ≥ 90% | – |
| COC(=O)N(C)N(C)C(=O)c1cc(Cl)cc(C)c1NC(=O)c1cc(Br)nn1-c1ncccc1Cl [(119)] | – | ≥ 90% | – |
| COC(=O)NNC(=O)c1cc(Cl)cc(C)c1NC(=O)c1cc(Br)c(Br)n1-c1ncccc1Cl [(127)] | – | ≥ 90% | – |

| SMILES | Controlling value (cotton aphids) | pest or weed control at 500 ppm (silver leaf whitefly) | pest or weed control at 500 ppm [1] |
| --- | --- | --- | --- |
| COC(=O)NNC(=O)c1cc(Cl)cc(C)c1NC(=O)c1ccc(Cl)n1-c1ncccc1Cl [(129)] | – | ≥ 90% | – |
| COC(=O)NNC(=O)c1cc2ccccc2c(Br)c1NC(=O)c1cc(Br)nn1-c1ncccc1Cl [(140)] | – | – | ≥ 90% |
| COC(=O)N(C)N(C)C(=O)c1cc(C#N)cc(C)c1NC(=O)c1cc(Br)nn1-c1ncccc1Cl [(144)] | – | ≥ 90% | – |
| COC(=O)NNC(=O)c1cc(Cl)cc(C)c1NC(=O)c1cc(Cl)cn1-c1ncccc1Cl [(153)] | – | ≥ 90% | – |
| COC(=O)N(NC(=O)c1cc(Cl)cc(C)c1NC(=O)c1cc(Br)cn1-c1ncccc1Cl)C(=O)OC [(158)] | – | ≥ 90% | – |
| COC(=O)N(NC(=O)c1cc(Cl)cc(C)c1NC(=O)c1cc(Cl)cn1-c1ncccc1Cl)C(=O)OC [(159)] | – | – | ≥ 90% |
| COC(=O)N(NC(=O)c1cc(Cl)cc(C)c1NC(=O)c1cc(Cl)c(Cl)n1-c1ncccc1Cl)C(=O)OC [(167)] | – | – | ≥ 90% |
| COC(=O)NNC(=O)c1cc([N+](=O)[O-])cc(C)c1NC(=O)c1cc(Br)nn1-c1ncccc1Cl [(183)] | – | – | ≥ 90% |
| COC(=O)NNC(=O)c1cc(Cl)cc(C)c1NC(=O)c1cc(Br)cn1-c1ccncc1Cl [(187)] | – | – | ≥ 90% |
| COC(=O)N(NC(=O)c1cc(Br)cc(Br)c1NC(=O)c1cc(Br)cn1-c1ncccc1Cl)C(=O)OC [(201)] | – | ≥ 90% | – |
| COC(=O)N(C)N(C)C(=O)c1cc(Br)cc(Br)c1NC(=O)c1cc(Br)nn1-c1ncccc1Cl [(204)] | – | ≥ 90% | – |
| CN(C)C(=O)NN(C)C(=O)c1cc(Br)cc(Br)c1NC(=O)c1cc(Br)cn1-c1ncccc1Cl [(206)] | – | – | ≥ 90% |
| COC(=O)N(C)NC(=O)c1cc(Br)cc(Br)c1NC(=O)c1cc(Br)cn1-c1ncccc1Cl [(209)] | – | ≥ 90% | – |
| COCCOC(=O)N(NC(=O)c1cc(Cl)cc(C)c1NC(=O)c1cc(Br)nn1-c1ncccc1Cl)C(=O)OC [(215)] | – | ≥ 90% | – |
| Cc1cc(Cl)cc(C(=O)NNC(=O)OCCF)c1NC(=O)c1cc(Br)nn1-c1ncccc1Cl [(221)] | – | ≥ 90% | – |
| C#CCOC(=O)NNC(=O)c1cc(Br)cc(Br)c1NC(=O)c1cc(Br)cn1-c1ncccc1Cl [(223)] | – | ≥ 90% | – |
| COC(=O)NNC(=O)c1cc(Br)cc(Br)c1NC(=O)c1ccc(S(C)(=O)=O)n1-c1ncccc1Cl [(226)] | – | ≥ 90% | ≥ 90% |
| COC(=O)NNC(=O)c1cc(Br)cc(Br)c1NC(=O)c1ccc(SC)n1-c1ncccc1Cl [(227)] | – | – | ≥ 90% |
| COC(=O)N(C)N(C)C(=O)c1cc(Cl)cc(Cl)c1NC(=O)c1cc(Br)nn1-c1ncccc1Cl [(231)] | – | ≥ 90% | ≥ 90% |
